According to patent publication US20260263480A1, “PHARMACEUTICAL COMPOSITION CONTAINING A DIPEPTIDYL PEPTIDASE SMALL MOLECULE INHIBITOR” (HAISCO PHARMACEUTICALS PTE. LTD., priority 2023, published 2026):

Columns and labels:
NE enzyme = details: cited from earlier work
[1] = tested on: LPS-induced acute lung injury; details: cited from earlier work
[2] = both, Sprague-Dawley (SD), rat, in vivo, 14 days
Experimental: The treatment group each includes 16 rats, and the vehicle control group includes 10 rats, with a half of male rats and a half of female rats. The drug at corresponding concentrations and the vehicle were administered to the rats through oral gavage daily for 14 consecutive days. The rats were allowed to recover for 7 days. During the administration period, general conditions, body weight and food intake were detected for each group. After the administration period and the recovery period, hematology test, serum biochemistry test and gross anatomical examination were performed for each group.

Compound: Cn1c(=O)oc2ccc(-c3ccc(C[C@@H](C#N)NC(=O)[C@@H]4CNCCCO4)c(F)c3)cc21 [Compound A, (S)—N—((S)-1-cyano-2-(2-fluoro-4-(3-methyl-2-oxo-2,3-dihydrobenzo[d]oxazol-5-yl)phenyl)ethyl)-1,4-oxazepane-2-carboxamide]
- Inhibition of NE enzyme activity in rat bone marrow (NE enzyme): significantly inhibit NE enzyme activity in rat bone marrow
- Effect on LPS-induced acute lung injury in mice [1]: mitigate LPS-induced acute lung injury in mice
- Toxicity compared at the same dose [2]: less toxic than INS1007
